# Source: patent US20010034345A1, “METHODS OF ADMINSTERING AN AMPA RECEPTOR ANTAGONIST TO TREAT DYSKINESIAS ASSOCIATED WITH DOPAMINE AGONIST THERAPY” (priority 1997, published 2001)
# Tests used:
# [1] = tested on: behavior of monkeys (MPTP-treated or untreated); assay: Behavioral effect in other monkeys (MPTP-treated or untreated); format: in vivo, monkey; settings: 0.3 mg/kg sc.
# Procedure: Monkeys were made parkinsonian by intracarotid injection of the dopamine neuron toxin MPTP. Choreic and dystonic dyskinesias were induced in one monkey by chronic administration of L-DOPA followed by the selective D2 agonist PHNO. 3-(2-chloro-phenyl)-2-[2(6-diethylaminomethyl-pyridin-2-yl)-vinyl]-6-fluoro-3H-quinazolin-4-one (0.3 mg/kg sc.) reduced by 80% the choreic dyskinesia induced by dopamine agonist.
# [2] = tested on: choreic dyskinesia induced by dopamine agonist; assay: In vivo model for dyskinesias associated with dopamine agonist therapy (MPTP parkinsonian monkeys); settings: 0.3 mg/kg sc.; one MPTP parkinsonian monkey, dyskinesias induced by chronic L-DOPA followed by PHNO
# Procedure: The following procedure may be used to assess the efficacy of an AMPA receptor antagonist in the treatment of dyskinesias associated with dopamine agonist therapy in the treatment of Parkinson's disease. Aged, female rhesus monkeys are rendered Parkinsonian as follows. Each monkey is first infused with 0.4 mg/kg MPTP (1-methyl-4-phenyl-1,2,3,6-tetrahydropyridine) via the right internal carotid artery. After being evaluated behaviorally for 3 to 6 weeks and being judged to have stable unilateral deficits, the animals receive a second MPTP injection via the left internal carotid artery. […] Once the monkeys are Parkinsonian, dyskinesias are induced over a period of approximately 3 to 6 weeks by treating the monkeys twice daily with subcutaneous injections of PHNO ((+)-4-propyl-9-hydroxynaphthoxazine) (a dopamine agonist). Dyskinesias are assessed 30 minutes after PHNO injection and every 30 minutes for the next 120 minutes (5 measurements) taking into account the following: type of dyskinesia (chorea, dystonia); intensity (0=absent; 1=mild; 2=moderate; 3=severe); and topography (arm, leg, trunk, generalized). The overall score (0-3) is averaged over the 5 measurements. Scoring is performed blindly from coded videotapes. An AMPA receptor antagonist is then administered together with the dopamine agonist at dosages ranging from 0.05 mg/kg to 1 mg/kg. […]
compound,measurement,setting,value
CCN(CC)Cc1cccc(C=Cc2nc3ccc(F)cc3c(=O)n2-c2ccccc2Cl)n1 [3-(2-chloro-phenyl)-2-[2-(6-diethylaminomethyl-pyridin-2-yl)-vinyl]-6-fluoro-3H-quinazolin-4-one],behavioral effect,[1],little or no behavioral effect
same,reduction of choreic dyskinesia induced by dopamine agonist,[2],80%
